Laboratory results: patent US8388930B2, “Diagnosis and assessment of skeletal related disease using calcium 41” (Lawrence LIvermore National Security, LLC, priority 2004, dated 2013)

Columns and labels:
[1] = urinary 41Ca/Ca variability in monthly urine samples after oral 41Ca dose; format: in vivo; details: days 500 to 700 after 1.2 ng oral 41Ca dose, six human volunteers
Text: ^41Ca remains quantifiable via accelerator mass spectrometry (AMS) in human urine and blood for many years following a single chemically and radiologically benign oral or intravenous dose; this longevity makes urinary ^41Ca content very specific to bone turnover. […] Applicants also measured tracer distribution and increased ^41Ca release from pre-labeled bones in a human xenograft model of metastatic bone disease from prostate cancer. […] Low natural variability of urinary ^41Ca/Ca in humans will enable a non-invasive, highly sensitive clinical measure of bone turnover perturbations from metastatic bone disease.

[2] = system: human xenograft model of metastatic bone disease from prostate cancer; assay: tracer distribution and 41Ca release from pre-labeled bones in human xenograft model of metastatic bone disease; format: in vivo, nude mice
Text: However, the ultimate value of these techniques for individual patients is uncertain, due (in part) to high natural variability of biomarkers in urine and serum (Kannis J A, McCloskey E V. Bone turnover and biochemical markers in malignancy. Cancer. 1997; 80:1538-45). Applicants believe that labeling the human skeleton with a ^41Ca tracer and monitoring urinary tracer abundance will provide a non-invasive, highly sensitive, clinically useful measure of bone turnover. The longest half-life isotope of calcium, ^41Ca, provides a sensitive method for tracking short and long-term bone turnover parameters. Due to extremely low natural abundance (<10^−15), a single sub-physiological ^41Ca dose (less than 1 ug=4 kBq=0.1 uCi) remains quantifiable via accelerator mass spectrometry (AMS) in blood and urine for many years: this longevity within the body's primary calcium pool makes ^41Ca variation specific to bone turnover (Weaver C M. Use of calcium tracers and biomarkers to determine calcium kinetics and bone turnover. Bone. 1998; 22(5):103S-104S). […]
^41Ca remains quantifiable via accelerator mass spectrometry (AMS) in human urine and blood for many years following a single chemically and radiologically benign oral or intravenous dose; this longevity makes urinary ^41Ca content very specific to bone turnover. […]

[3] = cited from earlier work

41Ca/Ca scatter about individual linear fits [1]: 5±3%
tracer distribution ([2]; human xenograft tumor model in nude mice): preferentially labels bone
Structure (SMILES): [41Ca] [^41Ca, radioactive calcium isotope ^41Ca]
serum 41Ca/Ca correlation with disease measures ([2]; serum, pre-labeled bones, xenograft model of prostate cancer bone metastasis): positively correlating with tumor size, skeletal disruption, serum tumor markers, and degree of hypercalcemia
lifetime radioactive exposure from ingested dose ([3]; ingested): < 2e-10 Sv/Bq
lifetime radioactive exposure from injected dose ([3]; injected): < 7e-10 Sv/Bq
